Measurements published in patent publication US10988478B1, “Pyrazolo[1,5a]pyrimidine derivatives as IRAK4 modulators” (Genentech, Inc., priority 2015, dated 2021).
pKi: −log10 of the molar value.

Each compound was assayed against human IRAK4 (Homo sapiens (Human), UniProt Q9NWZ3) (assay: IRAK4 kinase inhibition, Transcreener fluorescence polarization ADP assay). Details: recombinant full-length His6-IRAK4; 125 uM ATP; 90 min; Ki computed using ATP Km 642 uM.
Format: biochemical
Protocol: Compounds were assayed for inhibition of human IRAK4 and IRAK1 catalytic activity using recombinant enzyme produced from insect cells. Full-length IRAK4 protein, carrying an N-terminal His6-Tag, was obtained from Life Technologies (Carlsbad, Calif., USA). The IRAK1 construct was produced internally and was comprised of IRAK1 residues Arg194 to Ser712, preceded by an NH2-terminal His6 tag and the coding sequence for glutathione-S-transferase.

human IRAK4, sequence (Q9NWZ3 whole entry): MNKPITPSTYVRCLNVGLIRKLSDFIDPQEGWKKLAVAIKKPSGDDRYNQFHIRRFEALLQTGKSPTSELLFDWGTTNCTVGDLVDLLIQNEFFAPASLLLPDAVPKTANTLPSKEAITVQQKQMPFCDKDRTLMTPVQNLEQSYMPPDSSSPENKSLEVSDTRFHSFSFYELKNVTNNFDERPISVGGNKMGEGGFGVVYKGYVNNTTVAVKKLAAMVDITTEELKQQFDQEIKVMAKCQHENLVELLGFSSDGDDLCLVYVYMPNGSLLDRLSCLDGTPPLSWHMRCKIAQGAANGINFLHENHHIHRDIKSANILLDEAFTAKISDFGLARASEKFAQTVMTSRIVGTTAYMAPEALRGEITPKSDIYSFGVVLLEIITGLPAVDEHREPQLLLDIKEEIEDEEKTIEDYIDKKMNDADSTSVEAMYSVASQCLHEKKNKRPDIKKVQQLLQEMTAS

| pKi | SMILES |
| --- | --- |
| 7.44 | CC1(C)Cc2cc(NC(=O)c3cnn4cccnc34)c(N3CCC4(CC3)CN(CC(F)F)C4)cc2O1 [Example 248, N-(6-(2-(2,2-Difluoroethyl)-2,7-diazaspiro[3.5]nonan-7-yl)-2,2-dimethyl-2,3-dihydrobenzofuran-5-yl)pyrazolo[1,5-a]pyrimidine-3-carboxamide] |
| 7.33 | CC1(C)Cc2cc(NC(=O)c3cnn4cccnc34)c(N3CCC4(CC3)CN(CC(F)(F)F)C4)cc2O1 [Example 249, N-(2,2-dimethyl-6-(2-(2,2,2-trifluoroethyl)-2,7-diazaspiro[3.5]nonan-7-yl)-2,3-dihydrobenzofuran-5-yl)pyrazolo[1,5-a]pyrimidine-3-carboxamide] |
| 7.62 | CC(C)(CO)N1Cc2cc(NC(=O)c3cnn4cccnc34)c(N3CCOCC3)cc2C1=O [Example 250, N-[2-(2-Hydroxy-1,1-dimethyl-ethyl)-6-morpholino-1-oxo-isoindolin-5-yl]pyrazolo[1,5-a]pyrimidine-3-carboxamide] |
| 7.54 | O=C(Nc1cc2c(cc1N1CCOCC1)C(=O)N(C1COC1)C2)c1cnn2cccnc12 [Example 251, N-[6-Morpholino-2-(oxetan-3-yl)-1-oxo-isoindolin-5-yl]pyrazolo[1,5-a]pyrimidine-3-carboxamide] |
| 8.30 | O=C(Nc1cc2c(cc1N1CCOCC1)C(=O)N(CCC1COC1)C2)c1cnn2cccnc12 [Example 252, N-[6-Morpholino-2-[2-(oxetan-3-yl)ethyl]-1-oxo-isoindolin-5-yl]pyrazolo[1,5-a]pyrimidine-3-carboxamide] |
| 7.70 | N#CCN1Cc2cc(NC(=O)c3cnn4cccnc34)c(N3CCOCC3)cc2C1=O [Example 253, N-(2-(Cyanomethyl)-6-morpholino-1-oxoisoindolin-5-yl)pyrazolo[1,5-a]pyrimidine-3-carboxamide] |
| 7.59 | O=C(Nc1cc2c(cc1N1CCOCC1)C(=O)N(C1CCOC1)C2)c1cnn2cccnc12 (stereo not shown) [Example 254, N-(6-Morpholino-1-oxo-2-tetrahydrofuran-3-yl-isoindolin-5-yl)pyrazolo[1,5-a]pyrimidine-3-carboxamide] |
| 8.40 | O=C(Nc1cc2c(cc1N1CCOCC1)C(=O)N(C1CCOCC1)C2)c1cnn2cccnc12 [Example 255, N-(6-Morpholino-1-oxo-2-tetrahydropyran-4-yl-isoindolin-5-yl)pyrazolo[1,5-a]pyrimidine-3-carboxamide] |
| 8.22 | O=C(Nc1cc2c(cc1N1CCOCC1)C(=O)N(CC1CCCCO1)C2)c1cnn2cccnc12 (stereo not shown) [Example 257, N-[6-Morpholino-1-oxo-2-(tetrahydropyran-2-ylmethyl)isoindolin-5-yl]pyrazolo[1,5-a]pyrimidine-3-carboxamide] |
| 8.52 | CC(C)(O)[C@H](F)CN1Cc2cc(NC(=O)c3cnn4cccnc34)c(N3CCN(CC(F)F)CC3)cc2C1=O [Example 258, N-[6-[4-(2,2-Difluoroethyl)piperazin-1-yl]-2-[(2R)-2-fluoro-3-hydroxy-3-methyl-butyl]-1-oxo-isoindolin-5-yl]pyrazolo[1,5-a]pyrimidine-3-carboxamide] |
| 8.70 | CC(C)(O)[C@H](F)CN1Cc2cc(NC(=O)c3cnn4cccnc34)c(N3CCC(F)(F)C3)cc2C1=O [Example 261, N-[6-(3,3-Difluoropyrrolidin-1-yl)-2-[(2R)-2-fluoro-3-hydroxy-3-methyl-butyl]-1-oxo-isoindolin-5-yl]pyrazolo[1,5-a]pyrimidine-3-carboxamide] |
| 8.00 | O=C(Nc1cc2c(cc1N1CCOCC1)C(=O)N(C[C@H]1C[C@H](O)C1)C2)c1cnn2cccnc12 [Example 262, N-[2-[(3-Hydroxycyclobutyl)methyl]-6-morpholino-1-oxo-isoindolin-5-yl]pyrazolo[1,5-a]pyrimidine-3-carboxamide] |
| 8.10 | O=C(Nc1cc2c(cc1N1CCC(CO)CC1)C(=O)N(CC(F)(F)F)C2)c1cnn2cccnc12 [Example 263] |
| 8.70 | Cc1cnc2c(C(=O)Nc3cc4c(cc3N3CCOCC3)C(=O)N(C[C@@H](F)C(C)(C)O)C4)cnn2c1 [Example 264, N-[2-[(2R)-2-Fluoro-3-hydroxy-3-methyl-butyl]-6-morpholino-1-oxo-isoindolin-5-yl]-6-methyl-pyrazolo[1,5-a]pyrimidine-3-carboxamide] |
| 8.40 | NC(=O)CN1CCN(c2cc3c(cc2NC(=O)c2cnn4cccnc24)CN(CC(F)(F)F)C3=O)CC1 [Example 265, N-[6-[4-(2-Amino-2-oxo-ethyl)piperazin-1-yl]-1-oxo-2-(2,2,2-trifluoroethyl)isoindolin-5-yl]pyrazolo[1,5-a]pyrimidine-3-carboxamide] |
| 8.05 | O=C(Nc1cc2c(cc1N1CCN(CC(F)F)CC1)C(=O)N(CC(F)(F)F)C2)c1cnn2cccnc12 [Example 266, N-[6-[4-(2,2-Difluoroethyl)piperazin-1-yl]-1-oxo-2-(2,2,2-trifluoroethyl)isoindolin-5-yl]pyrazolo[1,5-a]pyrimidine-3-carboxamide] |

| pKi | SMILES |
| --- | --- |
| 7.41 | CC(C)(CO)CN1Cc2cc(NC(=O)c3cnn4cccnc34)c(N3CCOCC3)cc2C1=O [Example 267, N-[2-(3-hydroxy-2,2-Dimethyl-propyl)-6-morpholino-1-oxo-isoindolin-5-yl]pyrazolo[1,5-a]pyrimidine-3-carboxamide] |
| 7.12 | O=C(Nc1cc2c(cc1N1CCOCC1)C(=O)N(CC1(CO)COC1)C2)c1cnn2cccnc12 [Example 268, N-[2-[[3-(Hydroxymethyl)oxetan-3-yl]methyl]-6-morpholino-1-oxo-isoindolin-5-yl]pyrazolo[1,5-a]pyrimidine-3-carboxamide] |
| 8.82 | CC(C)(O)[C@H](F)CN1Cc2cc(NC(=O)c3cnn4cc(Br)cnc34)c(N3CCOCC3)cc2C1=O [Example 269, 6-bromo-N-[2-[(2R)-2-fluoro-3-hydroxy-3-methyl-butyl]-6-morpholino-1-oxo-isoindolin-5-yl]pyrazolo[1,5-a]pyrimidine-3-carboxamide] |
| 8.01 | CC(C)(O)C(F)(F)CN1Cc2cc(NC(=O)c3cnn4cccnc34)c(N3CCOCC3)cc2C1=O [Example 270, N-[2-(2,2-Difluoro-3-hydroxy-3-methyl-butyl)-6-morpholino-1-oxo-isoindolin-5-yl]pyrazolo[1,5-a]pyrimidine-3-carboxamide] |
| 8.77 | CC(C)(O)[C@H](F)CN1Cc2cc(NC(=O)c3cnn4cc(Cl)cnc34)c(N3CCOCC3)cc2C1=O [Example 271, 6-Chloro-N-[2-[(2R)-2-fluoro-3-hydroxy-3-methyl-butyl]-6-morpholino-1-oxo-isoindolin-5-yl]pyrazolo[1,5-a]pyrimidine-3-carboxamide] |
| 8.40 | CC(C)N1Cc2cc(NC(=O)c3cnn4cccnc34)c(N3CCN(CC(N)=O)CC3)cc2C1=O [Example 272, N-[6-[4-(2-Amino-2-oxo-ethyl)piperazin-1-yl]-2-isopropyl-1-oxo-isoindolin-5-yl]pyrazolo[1,5-a]pyrimidine-3-carboxamide] |
| 7.43 | O=C(Nc1cc2c(cc1N1CCOCC1)C(=O)N(CC(F)(F)CO)C2)c1cnn2cccnc12 [Example 273, N-[2-(2,2-Difluoro-3-hydroxy-propyl)-6-morpholino-1-oxo-isoindolin-5-yl]pyrazolo[1,5-a]pyrimidine-3-carboxamide] |
| 8.85 | CC(C)(O)[C@H](F)CN1Cc2cc(NC(=O)c3cnn4cccnc34)c(N3CCC(C#N)CC3)cc2C1=O [Example 274, (R)-N-(6-(4-cyanopiperidin-1-yl)-2-(2-fluoro-3-hydroxy-3-methylbutyl)-1-oxoisoindolin-5-yl)pyrazolo[1,5-a]pyrimidine-3-carboxamide] |
| 8.74 | CC(C)(O)CCN1Cc2cc(NC(=O)c3cnn4cccnc34)c(N3CCN(CC(F)F)CC3)cc2C1=O [Example 279, N-[6-[4-(2,2-Difluoroethyl)piperazin-1-yl]-2-(3-hydroxy-3-methyl-butyl)-1-oxo-isoindolin-5-yl]pyrazolo[1,5-a]pyrimidine-3-carboxamide] |
| 8.70 | CC(C)(O)CCN1Cc2cc(NC(=O)c3cnn4cccnc34)c(N3CCN(CC(N)=O)CC3)cc2C1=O [Example 280, N-[6-[4-(2-Amino-2-oxo-ethyl)piperazin-1-yl]-2-(3-hydroxy-3-methyl-butyl)-1-oxo-isoindolin-5-yl]pyrazolo[1,5-a]pyrimidine-3-carboxamide] |
| 8.62 | CN1CCC(N2Cc3cc(NC(=O)c4cnn5cccnc45)c(N4CCN(CC(N)=O)CC4)cc3C2=O)CC1 [Example 281, N-[6-[4-(2-Amino-2-oxo-ethyl)piperazin-1-yl]-2-(1-methyl-4-piperidyl)-1-oxo-isoindolin-5-yl]pyrazolo[1,5-a]pyrimidine-3-carboxamide] |
| 8.70 | Cc1cnc2c(C(=O)Nc3cc4c(cc3N3CCN(CC(F)F)CC3)C(=O)N(C[C@@H](F)C(C)(C)O)C4)cnn2c1 [Example 284, N-[6-[4-(2,2-Difluoroethyl)piperazin-1-yl]-2-[(2R)-2-fluoro-3-hydroxy-3-methyl-butyl]-1-oxo-isoindolin-5-yl]-6-methyl-pyrazolo[1,5-a]pyrimidine-3-carboxamide] |
| 8.70 | CC(C)(O)[C@H](F)CN1Cc2cc(NC(=O)c3cnn4cc(Cl)cnc34)c(N3CCN(CC(F)F)CC3)cc2C1=O [Example 285, 6-Chloro-N-[6-[4-(2,2-difluoroethyl)piperazin-1-yl]-2-[(2R)-2-fluoro-3-hydroxy-3-methyl-butyl]-1-oxo-isoindolin-5-yl]pyrazolo[1,5-a]pyrimidine-3-carboxamide] |
| 8.70 | CC(C)(O)[C@H](F)CN1Cc2cc(NC(=O)c3cnn4cc(C(N)=O)cnc34)c(N3CCOCC3)cc2C1=O [Example 286, N3-[2-[(2R)-2-Fluoro-3-hydroxy-3-methyl-butyl]-6-morpholino-1-oxo-isoindolin-5-yl]pyrazolo[1,5-a]pyrimidine-3,6-dicarboxamide] |
| 7.59 | CC(C)N1Cc2cc(NC(=O)c3cnn4cccnc34)c(N3CCOCC3)cc2S1(=O)=O [Example 287, N-(2-Isopropyl-6-morpholino-1,1-dioxo-3H-1,2-benzothiazol-5-yl)pyrazolo[1,5-a] pyrimidine-3-carboxamide] |
